{
  "source": "patent US6458590B1",
  "about": "“Methods and compositions for treatment of restenosis” (The United States of America, as represented by the …, priority 1997, dated 2002)",
  "key": {"[1]": {"system": "human coronary artery smooth muscle cells (CASMCs)", "assay": "Proliferation of CASMCs after lipofection with OPN oligonucleotides ([3H]-thymidine)", "type": "cell-based", "conditions": "oligonucleotide 1.5 μg/200 μl with LIPOFECTIN 5 μg/200 μl", "method": "(§1) CASMCs (Clonetics) were transfected with a “LIPOFECTIN”-oligonucleotide complex according to the manufacturer's (GIBCO-BRL Life Technologies, Inc. Gaithersburg, Md.) specifications. Briefly, 5 μg of “LIPOFECTIN” was mixed with either 1 or 2 μg of antisense oligonucleotide in 200 μl of serum free medium (SFM) (also called basal medium) and incubated at room temperature for 15 min. Cells (1×10^5 cells/well, 12-well plate) during log phase of growth were washed with SFM and 1 ml of SFM containing Lipofectin with different amounts of antisense S-oligonucleotides was added to each well and mixed by gentle agitation. The cells were incubated further with the same medium at 37° C. for 12 h. Additional control cells which received either SFM, or SFM which contained “LIPOFECTIN” alone, were also included. […] The SFM medium containing “LIPOFECTIN”-oligonucleotide complex was removed, and the cells incubated for an additional 48 h in regular medium. At the end of this incubation period, the cells were ready for the determination of a dose response on OPN expression as measured by Western blotting.\nThe effect of antisense ASHOPN-P1 on the proliferation of human coronary artery smooth muscle cells (CASMCs) was determined as described supra. […] The acid precipitable radioactivity was measured using a scintillation beta counter (Beckman)."}, "OPN [2]": {"system": "OPN", "assay": "OPN expression in lipofected CASMCs (immunoprecipitation, Western blot)", "type": "cell-based, human", "method": "as §1\nThe effect of antisense OPN sequences on OPN expression was determined by Western blot analysis as described above. […]"}, "OPN [3]": {"system": "OPN", "assay": "OPN production in PMA-stimulated CASMCs (immunoprecipitation, Western blotting)", "type": "cell-based, human", "conditions": "250 nM PMA, 37° C., 24 h", "method": "An in vitro assay was used in order to determine whether an increase in OPN gene expression is detectable. Since phorbol myristate acetate (PMA) is known to induce OPN gene expression, CASMCs were stimulated with PMA, and OPN production was detected by immunoprecipitation of cell lysates followed by Western blotting.\nCASMCs were incubated with Phorbol 12-myristate 13-acetate (PMA) (250 nM) at 37° C. for 24 h. The cells were immunoprecipitated using a kit according to manufacturer's (Boehringer Mannheim) instructions. Briefly, the cells were lysed with lysis buffer, centrifuged and the supernatant incubated with rabbit OPN-antibody for 1 h then with protein A-agarose at 4° C. overnight. Bound complexes were pelleted by centrifugation, washed and electrophoresed. Western blot analysis was done as described, supra."}, "CASMCs": {"system": "CASMCs", "assay": "CASMC proliferation assay ([3H]thymidine)", "type": "cell-based, human", "method": "CASMCs were cultured as described above and the cells were starved in serum free media for 48 h. The proliferation assays were performed as described previously (Monfardini et al., (1995) J. Biol. Chem. 270:6628-6638). Briefly, the cells were incubated in the absence or presence of PDGF-AB (100 ng/ml) (Upstate Biotechnology, Lake Placid, N.Y.) and increasing concentrations of OPN (1.0-6.0 μg/ml) at 37° C. for 24 h. In separate experiments, cells were pre-treated with either mouse anti human αvβ3-antibody (5 μg/ml), preimmune IgG or GRGDS peptide (10 nM) followed by OPN (3.0 μg/ml). After 4 h, [3H]thymidine (1 μCi/ml) was added and the cells were maintained in culture for an additional 24 h under the same culture conditions as described previously. After removing the supernatants, the cells were washed with basal medium and lysed in 50% TCA. The acid precipitable cell-bound radioactivity was measured using a scintillation counter (Beckman)."}, "human CASMC": {"system": "human CASMC", "assay": "CASMC migration assay (Transwell)", "type": "cell-based", "conditions": "OPN 0.68 or 1.36 μg/ml as chemoattractant, 24 h", "method": "Migration of CASMC was performed using Transwell cell culture chambers with an […] pore size polycarbonate membrane (Costar) as described previously (Yue et al., (1994) Exptl. Cell Res. 214:459-464). Briefly, sub-confluent human CASMC were trypsinized, centrifuged and resuspended in basal medium (SmBM) supplemented with 0.2% BSA. This was followed by the addition of 0.25 ml of cell suspension (5×10^4 cells) to the upper compartnent of the chamber. The lower compartment contained 0.5 ml of basal medium supplemented with 0.2% BSA together with 0.68 μg/ml OPN, 1.36 μg/ml OPN, or buffer alone. After incubation at 37° C. for 24 h., the non-migrated cells on the upper surface of the filters were scraped and washed. The migrated cells were fixed in methanol, stained with Giemsa stain, counted under an inverted microscope and photomicrographed (120×) using a Zeiss photomicroscope (Axiovert 405 M). In separate experiments, cells in the upper compartment were also treated with monoclonal mouse anti-human αvβ3-antibody (Chemicon) (10 μg/ml) before being assayed for migration in order to ascertain whether this OPN-stimulated migration is mediated via αvβ3. Preimmune IgG treatment served as a non-specific control."}, "CASMC": {"system": "CASMC", "assay": "ECM-invasion assay (matrigel-coated invasion chamber)", "type": "cell-based, human", "conditions": "OPN 0.5-2.0 μg/ml, 24 h", "method": "The ECM-invasion assay was performed using a commercially available 24-well matrigel-coated invasion chamber (Collaborative Research) as described previously (Kundu et al., (1996) Proc. Natl. Acad. Sci. (USA) 93:2915-2919). Briefly, the confluent CASMC were trypsinized, centrifuged, and resuspended in basal medium supplemented with 0.1% BSA. The lower compartment of the invasion chamber was filled with fibroblast-conditioned medium (FCM) which served as a chemoattractant. The invasion assays were initiated by inoculating the upper chamber with cells (1×10^5/well) which were either untreated or treated with varying concentrations of OPN (0.5-2.0 μg/ml). After incubating at 37° C. for 24 h, the cells in the upper chamber were discarded, the matrigel was scraped clear and the cells which had invaded the matrigel and migrated to the lower surface of the filter, were fixed, stained, counted and photomicrographed (120×) as described above. The cells were also pre-treated with mouse anti-human αvβ3 antibody (Chemicon) (10 μg/ml) as described above to determine if the OPN-induced invasion was mediated via αvβ3. Preimmune IgG was used as a non-specific control."}},
  "data": [
    {"compound": "5′-AATCACTGCAATTCTCATGG-3′ (all phosphorothioate, sugars by position and methylation of C not given here; listed as Homo sapiens) [ASHOPN-P1]", "values": [
      {"measurement": "inhibition of cell proliferation as compared to cells treated with LIPOFECTIN alone", "setting": "[1]", "value": 82, "unit": "%"},
      {"measurement": "expression of OPN by CASMCs", "setting": "OPN [2]; 1 or 2 μg S-oligonucleotide with LIPOFECTIN, versus LIPOFECTIN-treated or sense-treated cells", "value": "capable of inhibiting expression of OPN"},
      {"measurement": "specificity of the antisense effect", "setting": "OPN [2]; compared with OPN sense-treated cells", "value": "specific"}
    ]},
    {"compound": "5′CCATGAGAATTGCAGTGATT-3′ (all phosphorothioate, sugars by position and methylation of C not given here; listed as Homo sapiens) [SHOPN, reference compound]", "values": [
      {"measurement": "inhibition of cell proliferation as compared to cells treated with LIPOFECTIN alone", "setting": "[1]", "value": "about 50%"}
    ]},
    {"compound": "CCCCCCCCCCCCCC(=O)O[C@@H]1[C@@H](C)[C@@]2(O)[C@@H](C=C(CO)C[C@]3(O)C(=O)C(C)=C[C@@H]23)[C@@H]2C(C)(C)[C@]12OC(C)=O", "note": "[PMA, Phorbol 12-myristate 13-acetate]", "values": [
      {"measurement": "level of OPN protein in stimulated cells versus unstimulated cells", "setting": "OPN [3]", "value": "markedly higher"}
    ]},
    {"compound": "Gly-Arg-Gly-Asp-Ser (GRGDS) [reference compound]", "values": [
      {"measurement": "effect on OPN-induced proliferation", "setting": "CASMCs; pre-treatment: αvβ3-antibody 5 μg/ml or GRGDS 10 nM, then OPN 3.0 μg/ml", "value": "drastically inhibited"}
    ]},
    {"compound": "osteopontin [OPN]", "values": [
      {"measurement": "CASMC proliferation", "setting": "CASMCs; OPN 1.0-6.0 μg/ml", "value": "stimulated their proliferation in a dose-dependent manner"},
      {"measurement": "CASMC proliferation, OPN in conjunction with PDGF-AB", "setting": "CASMCs; with 100 ng/ml of PDGF-AB", "value": "dramatic dose-dependent effect"},
      {"measurement": "CASMC proliferation, OPN alone", "setting": "CASMCs; without PDGF-AB", "value": "modest proliferative response"},
      {"measurement": "rate of migration of CASMCs", "setting": "human CASMC", "value": "enhanced with increasing concentrations"},
      {"measurement": "invasiveness of CASMCs on MATRIGEL", "setting": "CASMC", "value": "enhanced their invasiveness"}
    ]},
    {"compound": "platelet-derived growth factor-AB [PDGF-AB, reference compound]", "values": [
      {"measurement": "CASMC proliferation, PDGF-AB alone", "setting": "CASMCs; PDGF-AB 100 ng/ml, without OPN", "value": "virtually no effect"}
    ]}
  ]
}
